Tests used:
Test in all cases: relative viability (nuclei count vs DMSO), 5 days (fraction); higher = more cells survive
EKVX = system: EKVX
How it was run: (§1)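 Each reported value is a median over duplicate plates. It expresses relative viability: treated-well nuclei count divided by vehicle-well nuclei count. Lung cancer cell lines in 1536-well plates were dosed by pin tool a day after seeding, alone with one drug or with a fixed anchor-drug dose plus five library-drug doses (not always all listed) in √10 steps, and nuclei were counted after 5 days.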

NCI-H1755 = system: NCI-H1755
How it was run: as §1

NCI-H1734 = system: NCI-H1734
How it was run: as §1

NCI-H2342 = system: NCI-H2342
How it was run: as §1

NCI-H1993 = system: NCI-H1993
How it was run: as §1

NCI-H358 = system: NCI-H358
How it was run: as §1

NCI-H838 = system: NCI-H838
How it was run: as §1

PC-14 = system: PC-14
How it was run: as §1

UMC-11 = system: UMC-11
How it was run: as §1

NCI-H2009 = system: NCI-H2009
How it was run: as §1

NCI-H647 = system: NCI-H647
How it was run: as §1

HARA = system: HARA
How it was run: as §1

NCI-H1355 = system: NCI-H1355
How it was run: as §1

HOP-62 = system: HOP-62
How it was run: as §1

COR-L23 = system: COR-L23
How it was run: as §1

NCI-H2228 = system: NCI-H2228
How it was run: as §1

NCI-H1793 = system: NCI-H1793
How it was run: as §1

NCI-H1395 = system: NCI-H1395
How it was run: as §1

NCI-H2347 = system: NCI-H2347
How it was run: as §1

HCC-15 = system: HCC-15
How it was run: as §1

SK-MES-1 = system: SK-MES-1
How it was run: as §1

NCI-H2170 = system: NCI-H2170
How it was run: as §1

COR-L 105 = system: COR-L 105
How it was run: as §1

In the case of CC1(C)CCC(c2ccc(Cl)cc2)=C(CN2CCN(c3ccc(C(=O)NS(=O)(=O)c4ccc(N[C@H](CCN5CCOCC5)CSc5ccccc5)c(S(=O)(=O)C(F)(F)F)c4)cc3)CC2)C1 [Navitoclax] + O=C(c1cc(Cc2n[nH]c(=O)c3ccccc23)ccc1F)N1CCN(C(=O)C2CC2)CC1 [Olaparib] (partner 8 µM), the relative viability (EKVX; first compound 0.005 µM) is reported as 0.887, the relative viability (EKVX; first compound 0.01581 µM) is reported as 0.994 and the relative viability (EKVX; first compound 0.05 µM) is reported as 0.784. The relative viability (EKVX; first compound 0.1581 µM) was 0.891, the relative viability (EKVX; first compound 0.5 µM) was 0.885 and the relative viability (NCI-H1755; first compound 0.005 µM) was 0.831. It also gave a relative viability (NCI-H1755; first compound 0.01581 µM) of 0.929, a relative viability (NCI-H1755; first compound 0.05 µM) of 0.686 and a relative viability (NCI-H1755; first compound 0.1581 µM) of 0.818. It also gave a relative viability (NCI-H1755; first compound 0.5 µM) of 0.897, a relative viability (NCI-H1734; first compound 0.005 µM) of 0.626 and a relative viability (NCI-H1734; first compound 0.01581 µM) of 0.67. For the same compound, the relative viability (NCI-H1734; first compound 0.1581 µM) was 0.534, the relative viability (NCI-H1734; first compound 0.5 µM) was 0.535 and the relative viability (NCI-H2342; first compound 0.005 µM) was 0.421. The relative viability (NCI-H2342; first compound 0.01581 µM) was 0.44, the relative viability (NCI-H2342; first compound 0.05 µM) was 0.322 and the relative viability (NCI-H2342; first compound 0.1581 µM) was 0.476. It also gave a relative viability (NCI-H2342; first compound 0.5 µM) of 0.456, a relative viability (NCI-H1993; first compound 0.005 µM) of 1.09 and a relative viability (NCI-H1993; first compound 0.01581 µM) of 1.32. For the same compound, the relative viability (NCI-H1993; first compound 0.05 µM) was 0.936, the relative viability (NCI-H1993; first compound 0.1581 µM) was 0.984 and the relative viability (NCI-H1993; first compound 0.5 µM) was 1.02. The relative viability (NCI-H358; first compound 0.005 µM) was 0.566, the relative viability (NCI-H358; first compound 0.01581 µM) was 0.751 and the relative viability (NCI-H358; first compound 0.05 µM) was 0.663. It also gave a relative viability (NCI-H358; first compound 0.1581 µM) of 0.536, a relative viability (NCI-H358; first compound 0.5 µM) of 0.585 and a relative viability (NCI-H838; first compound 0.005 µM) of 0.775. The relative viability (NCI-H838; first compound 0.01581 µM) was 0.818, the relative viability (NCI-H838; first compound 0.05 µM) was 0.834 and the relative viability (NCI-H838; first compound 0.1581 µM) was 0.775. The relative viability (NCI-H838; first compound 0.5 µM) was 0.768, the relative viability (PC-14; first compound 0.005 µM) was 0.266 and the relative viability (PC-14; first compound 0.01581 µM) was 0.28. For the same compound, the relative viability (PC-14; first compound 0.05 µM) was 0.283, the relative viability (PC-14; first compound 0.1581 µM) was 0.219 and the relative viability (PC-14; first compound 0.5 µM) was 0.235. It also gave a relative viability (UMC-11; first compound 0.005 µM) of 0.89, a relative viability (UMC-11; first compound 0.01581 µM) of 0.361 and a relative viability (UMC-11; first compound 0.05 µM) of 0.346. It also gave a relative viability (UMC-11; first compound 0.1581 µM) of 0.317, a relative viability (UMC-11; first compound 0.5 µM) of 0.266 and a relative viability (NCI-H2009; first compound 0.005 µM) of 0.698. The relative viability (NCI-H2009; first compound 0.01581 µM) was 0.692, the relative viability (NCI-H2009; first compound 0.05 µM) was 0.691 and the relative viability (NCI-H2009; first compound 0.1581 µM) was 0.6. The relative viability (NCI-H2009; first compound 0.5 µM) was 0.689, the relative viability (NCI-H647; first compound 0.005 µM) was 0.47 and the relative viability (NCI-H647; first compound 0.01581 µM) was 0.605. For the same compound, the relative viability (NCI-H647; first compound 0.05 µM) was 0.498, the relative viability (NCI-H647; first compound 0.1581 µM) was 0.471 and the relative viability (NCI-H647; first compound 0.5 µM) was 0.288. For the same compound, the relative viability (HARA; first compound 0.005 µM) was 0.763, the relative viability (HARA; first compound 0.01581 µM) was 0.752 and the relative viability (HARA; first compound 0.05 µM) was 0.579. For the same compound, the relative viability (HARA; first compound 0.1581 µM) was 0.789, the relative viability (HARA; first compound 0.5 µM) was 0.875 and the relative viability (NCI-H1355; first compound 0.005 µM) was 0.74. For the same compound, the relative viability (NCI-H1355; first compound 0.01581 µM) was 0.731, the relative viability (NCI-H1355; first compound 0.05 µM) was 0.734 and the relative viability (NCI-H1355; first compound 0.1581 µM) was 0.694. The relative viability (NCI-H1355; first compound 0.5 µM) was 0.806, the relative viability (HOP-62; first compound 0.005 µM) was 0.211 and the relative viability (HOP-62; first compound 0.01581 µM) was 0.434. The relative viability (HOP-62; first compound 0.05 µM) was 0.507, the relative viability (HOP-62; first compound 0.1581 µM) was 0.473 and the relative viability (HOP-62; first compound 0.5 µM) was 0.432. For the same compound, the relative viability (COR-L23; first compound 0.005 µM) was 0.374, the relative viability (COR-L23; first compound 0.01581 µM) was 0.405 and the relative viability (COR-L23; first compound 0.05 µM) was 0.375. For the same compound, the relative viability (COR-L23; first compound 0.1581 µM) was 0.367, the relative viability (COR-L23; first compound 0.5 µM) was 0.398 and the relative viability (NCI-H2228; first compound 0.005 µM) was 0.941. The relative viability (NCI-H2228; first compound 0.01581 µM) was 0.754, the relative viability (NCI-H2228; first compound 0.1581 µM) was 0.758 and the relative viability (NCI-H2228; first compound 0.5 µM) was 0.638. The relative viability (NCI-H1793; first compound 0.005 µM) was 0.903, the relative viability (NCI-H1793; first compound 0.01581 µM) was 1.05 and the relative viability (NCI-H1793; first compound 0.1581 µM) was 0.885. For the same compound, the relative viability (NCI-H1793; first compound 0.5 µM) was 0.684, the relative viability (NCI-H1395; first compound 0.005 µM) was 0.456 and the relative viability (NCI-H1395; first compound 0.01581 µM) was 0.495. It also gave a relative viability (NCI-H1395; first compound 0.05 µM) of 0.441, a relative viability (NCI-H1395; first compound 0.1581 µM) of 0.428 and a relative viability (NCI-H1395; first compound 0.5 µM) of 0.473. For the same compound, the relative viability (NCI-H2347; first compound 0.005 µM) was 0.558, the relative viability (NCI-H2347; first compound 0.01581 µM) was 0.585 and the relative viability (NCI-H2347; first compound 0.05 µM) was 0.537. It also gave a relative viability (NCI-H2347; first compound 0.1581 µM) of 0.61, a relative viability (NCI-H2347; first compound 0.5 µM) of 0.51 and a relative viability (HCC-15; first compound 0.005 µM) of 0.716. For the same compound, the relative viability (HCC-15; first compound 0.01581 µM) was 0.787, the relative viability (HCC-15; first compound 0.05 µM) was 0.626 and the relative viability (HCC-15; first compound 0.1581 µM) was 0.67. It also gave a relative viability (HCC-15; first compound 0.5 µM) of 0.778, a relative viability (SK-MES-1; first compound 0.005 µM) of 0.648 and a relative viability (SK-MES-1; first compound 0.01581 µM) of 0.677. The relative viability (SK-MES-1; first compound 0.05 µM) was 0.775, the relative viability (SK-MES-1; first compound 0.1581 µM) was 0.636 and the relative viability (SK-MES-1; first compound 0.5 µM) was 0.814. For the same compound, the relative viability (NCI-H2170; first compound 0.005 µM) was 0.574, the relative viability (NCI-H2170; first compound 0.01581 µM) was 0.62 and the relative viability (NCI-H2170; first compound 0.05 µM) was 0.53. For the same compound, the relative viability (NCI-H2170; first compound 0.1581 µM) was 0.58, the relative viability (NCI-H2170; first compound 0.5 µM) was 0.56 and the relative viability (COR-L 105; first compound 0.005 µM) was 0.707. It also gave a relative viability (COR-L 105; first compound 0.01581 µM) of 0.749, a relative viability (COR-L 105; first compound 0.05 µM) of 0.664 and a relative viability (COR-L 105; first compound 0.1581 µM) of 0.614. It also gave a relative viability (COR-L 105; first compound 0.5 µM) of 0.666.

— the supplement of paper PMC10307832
